Assay results reported in patent EP0758233B1, “PDE IV INHIBITORS FOR TREATING MULTIPLE SCLEROSIS” (SCHERING AKTIENGESELLSCHAFT, priority 1994, dated 1995).

Legend:
[1] = test system: encephalitogenic CD4+ MBP-specific rat TCL (L1402); test: TNF/LT production by rat MBP-specific T-cell line, cytotoxicity bioassay; format: cell-based; settings: stereospecificity, (-)- versus (+)-enantiomer
Description: To assess the ability of rolipram alone or in various combinations as described to modify autoimmune processes, we investigated its influence on TNF production in vitro by MBP-specific T-cell lines from MS patients and Lewis rats. MBP is a major candidate antigen in MS, and T-cell-mediated immunity is of crucial importance in its pathogenesis. Similar to EAE, MBP-specific T-cells in humans are often cytotoxic, of Th1 type secreting interferon (IFN)-gamma and TNF/LT, and recognize epitopes that are also encephalitogenic in EAE.
Similar results were found using an encephalitogenic CD4+ MBP-specific rat TCL (L1402). […] Previous investigations had shown that inhibition of cAMP PDE by rolipram is stereospecific.
TNF and LT may both be produced by autoactive T-cells. CD4+ cells have been reported to be the major source of TFN in autoimmune insulitis of NOD mice. The cytokine bioassay for TNF/LT detection employed here is sensitive to TNF and LT, but is 200 times more sensitive to the former.

[2] = test system: Experimental Allergic Encephalomyelitis (EAE); test: Prevention of Experimental Allergic Encephalomyelitis (EAE) in immunized marmosets; format: in vivo, Callithrix jacchus (common marmoset); settings: treatment stopped on day 60 following immunization; two marmosets; day counted from withdrawal
active EAE = test: Treatment of active (chronic) EAE in a marmoset; format: in vivo, Callithrix jacchus (common marmoset); settings: one marmoset with chronic EAE; escalating doses of Rolipram in DMSO
[3] = test system: adoptive cell transfer (tEAE); test: EAE after adoptive cell transfer (tEAE) in Lewis rats; format: in vivo; settings: treatment after onset of symptoms; n = 5
Procedure: The results of our in vivo findings prompted us to perform treatment experiments in EAE after active immunization (aEAE) and adoptive cell transfer (tEAE) in Lewis rats. […] In clinically manifest EAE, treatment was started within 6 hours of the onset of symptoms. […] In tEAE similar effects were observed. […] Treatment after onset of symptoms also lead to a marked reduction in maximum severity (treated group: MMS 0.7 ± 0.10, n = 5; vehicle treated matched controls 2.45 ± 0.56, n = 5, p 0.01).

Row | SMILES | times more effective than the (+)-enantiomer (inhibition of TNF/LT production) [1] [times] | clinical signs of EAE following withdrawal of Rolipram [2] [days] | MRI improvement following initiating Rolipram treatment (active EAE) [days] | marked improvement (physical symptoms) after initiating treatment (active EAE) [days] | maximum severity, MMS [3]
1 | COc1ccc(C2CNC(=O)C2)cc1OC1CCCC1 (single isomer, unassigned; (-)) [(-)-rolipram] | 55 | – | – | – | –
2 | COc1ccc(C2CNC(=O)C2)cc1OC1CCCC1 (centres unmarked) [Rolipram, 4-[(3-cyclopentyloxy)-4-methoxyphenyl)-2-pyrrolidinone] | – | 17 | 14 | 10 | 0.7 ± 0.10
